The values below are quoted from earlier work in publication PMC8036510, “The Inhibitory Effects of Plant Derivate Polyphenols on the Main Protease of SARS Coronavirus 2 and Their Structure–Activity Relationship” (Molecules, 2021).

Data set [1] deals with M^pro. On the set-up: method as in PMID 33022015. The conditions noted are these: substrate MCA-AVLQSGFR-K(Dnp)-K-NH2.
The subject of data set [2] is M^pro. The arrangement: method as in PMID 32963564. The conditions noted are these: 37 °C for 5 h, same substrate.

Structures are written as SMILES. Values after ≈ are worked out from the molar mass of the structure shown.

For orientation: IC50 means the concentration that inhibits the measured activity by half. For the compound `O=C(OC[C@H]1O[C@@H](OC(=O)c2cc(O)c(O)c(OC(=O)c3cc(O)c(O)c(O)c3)c2)[C@H](OC(=O)c2cc(O)c(O)c(OC(=O)c3cc(O)c(O)c(O)c3)c2)[C@@H](OC(=O)c2cc(O)c(O)c(OC(=O)c3cc(O)c(O)c(O)c3)c2)[C@@H]1OC(=O)c1cc(O)c(O)c(OC(=O)c2cc(O)c(O)c(O)c2)c1)c1cc(O)c(O)c(OC(=O)c2cc(O)c(O)c(O)c2)c1` [Tannic acid], the IC50 in data set [1] was 2100 nM.
As for `O=C(O[C@@H]1Cc2c(O)cc(O)cc2O[C@@H]1c1cc(O)c(O)c(O)c1)c1cc(O)c(O)c(O)c1` [Epigallocatechin gallate (EGCG), Epigallocatechin gallate], the “IC50 on M^pro” value in data set [2] is 7.6 µg/mL (≈ 16.6 µM).
